Literature values in paper PMC11696226 (Nature Communications, 2025).
Like-named read-outs stand apart in the source and are kept apart here.

Test system: metastatic TNBC / breast cancer

Compound	median OS (TNBC, pooled EMBRACE and Study 301) [month]	median PFS (TNBC, pooled EMBRACE and Study 301, 199 patients) [month]	median OS (ASCENT, metastatic TNBC) [months]	median PFS (ASCENT, metastatic TNBC, ≥2 lines of chemotherapy) [months]	HR for OS vs conventional chemotherapy (ASCENT, p < 0.001)	HR for PFS vs conventional chemotherapy (ASCENT, p < 0.001)
C=C1C[C@@H]2CC[C@@]34C[C@H]5O[C@H]6[C@@H](O3)[C@H]3O[C@H](CC[C@@H]3O[C@H]6[C@H]5O4)CC(=O)C[C@@H]3[C@@H](OC)[C@@H](C[C@H](O)CN)O[C@H]3C[C@H]3O[C@@H](CC[C@@H]1O2)C[C@@H](C)C3=C [eribulin]	12.4	2.8				
SG: antibody-drug conjugate			12.1	5.6	0.48	0.41
